# Assays:
# [1] = molecular target: JAK1 (Homo sapiens, UniProt P23458); conditions: Source Invitrogen; 10-point titration in duplicates, done once; cited from earlier work
# [2] = molecular target: InsR (Homo sapiens, UniProt P06213); conditions: cited from earlier work
# [3] = tested on: MYCN in DIPG-13p cells; assay: MYCN transcript (qRT-PCR) and protein (Western blot); format: cell-based, human; conditions: DIPG-13p cells (MYCN amplification)
# Protocol: FIG. 14E provides Western blot confirming MYCN protein levels decrease in DIPG-13p cells from FIG. 14E.
# Total RNA isolation was performed using an RNA extraction kit according to the manufacturer's instructions (RNeasy kit, Qiagen). cDNA was synthesized from 100 ng of total RNA using the Quantitect RT kit which included DNAse treatment (Qiagen). Quantitative real-time PCR was performed on 10 ng of cDNA template in a final volume of 20 μl using the Chromo4 Real Time PCR detector (MJ Research, a Division of Bio-Rad Laboratories Ltd) using SYBR green fluorescence. RT-PCR data was analyzed using Opticon Monitor 3.1.3 analysis software. Data analysis was done using the delta CT method with HPRT1 as a reference/control gene. Specific Primers are available in Table 4.
# [4] = tested on: DIPG-IV cells overexpressing ERK5 and constitutively active ERK5; assay: EC50 of TG02 in DIPG-IV cells expressing ERK5-HA or ERK5-HA T733E; format: cell-based, human
# Protocol: (§1) Direct cell counts were performed using the Countess II FL Automated Cell Counter (ThermoFisher Scientific). Alamar blue viability (ThermoFisher Scientific) and the 5-bromo-2′-deoxyuridine (BrdU) incorporated cell proliferation assay (Cell Signaling Technology Cat #6813) were performed using the manufacturer's standard protocol. EC50 curve analysis was performed using raw fluorescent Alamar blue values that were inputted into PRISM 7.0. Drug concentrations were log 10 transformed and values normalized to percent viability with respect to vehicle treated cells. EC50 values were interpolated from a log inhibitor vs. normalized response with variable slope using a least square fit model.
# [5] = molecular target: MEK1 (Homo sapiens, UniProt Q02750); conditions: cited from earlier work
# [6] = molecular target: CK1α1 (Homo sapiens, UniProt P48729); conditions: cited from earlier work
# [7] = tested on: normal astrocytes or neural stem cells; assay: viability of normal cells treated with TG02; format: cell-based, human; conditions: nM ranges
# Description: Brain gliomas express high levels of ERK5 (FIG. 29).
# [8] = molecular target: JAK3 (Homo sapiens, UniProt P52333); conditions: cited from earlier work
# [9] = molecular target: TYK2 (Homo sapiens, UniProt P29597); conditions: Source Invitrogen; 10-point titration in duplicates, done once; cited from earlier work
# [10] = molecular target: Abl (Homo sapiens, UniProt P00519); conditions: cited from earlier work
# [11] = tested on: tumor cells (DIPG); assay: cell viability with TG02 and radiation (cell count/trypan blue); format: cell-based; conditions: day 5
# Protocol: Cells were plated on day 1 (1×10^6). […] On day 5, cell viability were measured by cell count/trypan blue assay on thermo cell countess machines. For fractionated rad, additional 1.8 Gy doses were given on days 3 and 4. […] Therefore, the combination of TG02 and radiation can provide significant, synergistic benefits for treating DIPG as compared to when TG02 and radiation are administered alone.
# [12] = molecular target: Fms (Homo sapiens, UniProt P07333); conditions: Source Millipore; 10-point titration in duplicates, done once; cited from earlier work
# [13] = molecular target: GSK3α (Homo sapiens, UniProt P49840); conditions: cited from earlier work
# [14] = molecular target: Lck (Homo sapiens, UniProt P06239); conditions: Source Millipore; 10-point titration in duplicates, done once; cited from earlier work
# [15] = cited from earlier work
# [16] = tested on: DIPG-IV cells expressing MYC S62D; assay: EC50 of TG02 in DIPG-IV cells expressing MYC S62D; format: cell-based, human; conditions: MYC S62D vs empty vector control
# Protocol: as §1
# [17] = molecular target: CDK6 (Homo sapiens, UniProt Q00534); conditions: cited from earlier work
# [18] = molecular target: PDGFRβ (Homo sapiens, UniProt P09619); conditions: cited from earlier work
# [19] = molecular target: DYRKIB (Homo sapiens, UniProt Q9Y463); conditions: cited from earlier work
# [20] = molecular target: IGF-1R (Homo sapiens, UniProt P08069); conditions: cited from earlier work
# [21] = cited from earlier work; remark: listed apart in the source
# [22] = molecular target: PKA (Homo sapiens, UniProt P17612); conditions: cited from earlier work
# [23] = molecular target: ASK1 (Homo sapiens, UniProt Q99683); conditions: cited from earlier work
# [24] = molecular target: CDK3 (Homo sapiens, UniProt Q00526); conditions: Source Millipore; 10-point titration in duplicates, done once; cited from earlier work
# Chain of CDK3 (Q00526 whole entry): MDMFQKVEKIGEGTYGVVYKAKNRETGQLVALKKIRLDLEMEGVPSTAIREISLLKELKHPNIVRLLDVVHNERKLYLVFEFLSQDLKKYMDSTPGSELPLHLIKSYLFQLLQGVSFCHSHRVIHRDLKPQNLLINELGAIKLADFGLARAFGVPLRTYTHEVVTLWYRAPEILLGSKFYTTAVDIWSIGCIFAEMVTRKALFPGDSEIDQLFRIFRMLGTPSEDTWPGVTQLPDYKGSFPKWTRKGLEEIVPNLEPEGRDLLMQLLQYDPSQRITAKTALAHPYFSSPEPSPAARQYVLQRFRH
# Chain of CDK3 (P24864 whole entry partner): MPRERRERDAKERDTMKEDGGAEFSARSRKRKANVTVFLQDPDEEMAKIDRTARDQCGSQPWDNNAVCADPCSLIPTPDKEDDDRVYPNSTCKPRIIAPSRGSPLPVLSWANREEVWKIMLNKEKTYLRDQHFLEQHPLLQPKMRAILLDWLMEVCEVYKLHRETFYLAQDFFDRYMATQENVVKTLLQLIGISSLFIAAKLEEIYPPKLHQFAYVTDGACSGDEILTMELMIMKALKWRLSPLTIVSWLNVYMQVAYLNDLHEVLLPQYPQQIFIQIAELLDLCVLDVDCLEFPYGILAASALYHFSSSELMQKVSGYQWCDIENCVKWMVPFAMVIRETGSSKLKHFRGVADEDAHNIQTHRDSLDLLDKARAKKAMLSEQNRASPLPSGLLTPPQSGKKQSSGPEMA
# Chain of GSK3α (P49840 whole entry): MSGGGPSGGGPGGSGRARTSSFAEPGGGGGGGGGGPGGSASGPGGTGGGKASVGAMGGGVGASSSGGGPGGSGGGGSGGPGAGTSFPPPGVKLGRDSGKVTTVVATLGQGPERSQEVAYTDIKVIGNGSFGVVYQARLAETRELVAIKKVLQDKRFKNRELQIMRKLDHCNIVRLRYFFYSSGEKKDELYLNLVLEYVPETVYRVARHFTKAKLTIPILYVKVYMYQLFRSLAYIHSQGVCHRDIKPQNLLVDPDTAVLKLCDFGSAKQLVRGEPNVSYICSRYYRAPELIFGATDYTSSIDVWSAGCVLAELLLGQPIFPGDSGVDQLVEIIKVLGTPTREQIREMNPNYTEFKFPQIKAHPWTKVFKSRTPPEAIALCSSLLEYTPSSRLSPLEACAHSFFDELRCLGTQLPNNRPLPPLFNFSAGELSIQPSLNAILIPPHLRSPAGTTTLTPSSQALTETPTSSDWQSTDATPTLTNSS
# Chain of DYRKIB (Q9Y463 whole entry): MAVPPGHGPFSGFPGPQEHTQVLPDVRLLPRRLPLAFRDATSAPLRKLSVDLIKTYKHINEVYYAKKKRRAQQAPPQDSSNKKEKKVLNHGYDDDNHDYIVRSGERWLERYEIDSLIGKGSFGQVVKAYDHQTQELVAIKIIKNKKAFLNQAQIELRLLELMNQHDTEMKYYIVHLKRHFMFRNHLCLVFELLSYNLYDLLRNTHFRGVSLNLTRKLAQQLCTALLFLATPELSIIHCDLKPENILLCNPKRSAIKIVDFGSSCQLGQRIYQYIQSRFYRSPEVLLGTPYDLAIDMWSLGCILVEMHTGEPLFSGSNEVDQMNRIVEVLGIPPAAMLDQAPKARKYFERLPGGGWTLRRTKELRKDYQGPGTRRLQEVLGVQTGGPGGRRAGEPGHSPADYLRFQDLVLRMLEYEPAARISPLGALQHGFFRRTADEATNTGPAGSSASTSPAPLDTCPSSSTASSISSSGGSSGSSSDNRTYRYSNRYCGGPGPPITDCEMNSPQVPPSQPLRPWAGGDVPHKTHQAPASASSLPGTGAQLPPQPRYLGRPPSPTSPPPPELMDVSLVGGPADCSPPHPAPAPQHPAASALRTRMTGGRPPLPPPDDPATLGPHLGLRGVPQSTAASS
# Chain of CDK6 (Q00534 whole entry): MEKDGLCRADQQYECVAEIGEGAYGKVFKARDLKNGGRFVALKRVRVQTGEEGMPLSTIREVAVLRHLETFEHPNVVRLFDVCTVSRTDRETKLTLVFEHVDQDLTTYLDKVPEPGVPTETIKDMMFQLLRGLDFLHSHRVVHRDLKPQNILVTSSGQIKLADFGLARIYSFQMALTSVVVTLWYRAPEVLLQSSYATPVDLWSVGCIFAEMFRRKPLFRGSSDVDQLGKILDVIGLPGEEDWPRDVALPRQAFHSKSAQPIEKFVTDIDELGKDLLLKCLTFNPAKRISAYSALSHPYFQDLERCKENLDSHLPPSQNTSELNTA
# Chain of CDK6 (P30281 whole entry partner): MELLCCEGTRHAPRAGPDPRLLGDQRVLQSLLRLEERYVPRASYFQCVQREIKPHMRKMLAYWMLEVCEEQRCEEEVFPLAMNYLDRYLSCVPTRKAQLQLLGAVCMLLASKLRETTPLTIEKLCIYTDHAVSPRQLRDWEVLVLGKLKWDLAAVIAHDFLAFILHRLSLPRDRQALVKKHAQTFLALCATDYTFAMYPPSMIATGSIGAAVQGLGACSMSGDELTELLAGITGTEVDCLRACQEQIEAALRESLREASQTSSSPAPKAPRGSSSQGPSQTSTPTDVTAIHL
# Chain of Fms (P07333 20-972): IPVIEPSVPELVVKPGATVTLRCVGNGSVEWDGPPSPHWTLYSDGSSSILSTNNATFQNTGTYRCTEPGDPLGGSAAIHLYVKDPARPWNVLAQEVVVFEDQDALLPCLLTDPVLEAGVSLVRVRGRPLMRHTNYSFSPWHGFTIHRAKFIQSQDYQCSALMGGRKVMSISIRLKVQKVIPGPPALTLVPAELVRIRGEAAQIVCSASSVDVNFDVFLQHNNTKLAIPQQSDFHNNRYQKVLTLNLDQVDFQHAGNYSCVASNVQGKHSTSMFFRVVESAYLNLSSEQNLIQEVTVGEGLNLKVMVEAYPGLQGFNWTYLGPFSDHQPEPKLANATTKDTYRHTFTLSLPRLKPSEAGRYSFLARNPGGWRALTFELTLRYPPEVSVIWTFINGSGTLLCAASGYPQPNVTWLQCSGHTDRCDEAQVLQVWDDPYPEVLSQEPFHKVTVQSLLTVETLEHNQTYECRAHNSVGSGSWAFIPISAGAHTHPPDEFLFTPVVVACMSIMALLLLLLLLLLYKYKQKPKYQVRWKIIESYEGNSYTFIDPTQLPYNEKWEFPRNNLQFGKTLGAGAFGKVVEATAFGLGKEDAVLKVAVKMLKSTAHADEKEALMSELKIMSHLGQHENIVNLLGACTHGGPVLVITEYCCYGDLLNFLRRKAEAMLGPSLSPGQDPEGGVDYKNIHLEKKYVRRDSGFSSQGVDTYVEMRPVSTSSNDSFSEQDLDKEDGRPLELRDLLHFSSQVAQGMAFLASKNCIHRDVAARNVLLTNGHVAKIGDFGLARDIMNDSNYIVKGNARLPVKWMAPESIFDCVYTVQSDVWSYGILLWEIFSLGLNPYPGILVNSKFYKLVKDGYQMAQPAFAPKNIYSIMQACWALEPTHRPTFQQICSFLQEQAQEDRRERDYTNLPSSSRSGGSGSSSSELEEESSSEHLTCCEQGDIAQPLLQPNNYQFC
# Chain of InsR (P06213 28-1382): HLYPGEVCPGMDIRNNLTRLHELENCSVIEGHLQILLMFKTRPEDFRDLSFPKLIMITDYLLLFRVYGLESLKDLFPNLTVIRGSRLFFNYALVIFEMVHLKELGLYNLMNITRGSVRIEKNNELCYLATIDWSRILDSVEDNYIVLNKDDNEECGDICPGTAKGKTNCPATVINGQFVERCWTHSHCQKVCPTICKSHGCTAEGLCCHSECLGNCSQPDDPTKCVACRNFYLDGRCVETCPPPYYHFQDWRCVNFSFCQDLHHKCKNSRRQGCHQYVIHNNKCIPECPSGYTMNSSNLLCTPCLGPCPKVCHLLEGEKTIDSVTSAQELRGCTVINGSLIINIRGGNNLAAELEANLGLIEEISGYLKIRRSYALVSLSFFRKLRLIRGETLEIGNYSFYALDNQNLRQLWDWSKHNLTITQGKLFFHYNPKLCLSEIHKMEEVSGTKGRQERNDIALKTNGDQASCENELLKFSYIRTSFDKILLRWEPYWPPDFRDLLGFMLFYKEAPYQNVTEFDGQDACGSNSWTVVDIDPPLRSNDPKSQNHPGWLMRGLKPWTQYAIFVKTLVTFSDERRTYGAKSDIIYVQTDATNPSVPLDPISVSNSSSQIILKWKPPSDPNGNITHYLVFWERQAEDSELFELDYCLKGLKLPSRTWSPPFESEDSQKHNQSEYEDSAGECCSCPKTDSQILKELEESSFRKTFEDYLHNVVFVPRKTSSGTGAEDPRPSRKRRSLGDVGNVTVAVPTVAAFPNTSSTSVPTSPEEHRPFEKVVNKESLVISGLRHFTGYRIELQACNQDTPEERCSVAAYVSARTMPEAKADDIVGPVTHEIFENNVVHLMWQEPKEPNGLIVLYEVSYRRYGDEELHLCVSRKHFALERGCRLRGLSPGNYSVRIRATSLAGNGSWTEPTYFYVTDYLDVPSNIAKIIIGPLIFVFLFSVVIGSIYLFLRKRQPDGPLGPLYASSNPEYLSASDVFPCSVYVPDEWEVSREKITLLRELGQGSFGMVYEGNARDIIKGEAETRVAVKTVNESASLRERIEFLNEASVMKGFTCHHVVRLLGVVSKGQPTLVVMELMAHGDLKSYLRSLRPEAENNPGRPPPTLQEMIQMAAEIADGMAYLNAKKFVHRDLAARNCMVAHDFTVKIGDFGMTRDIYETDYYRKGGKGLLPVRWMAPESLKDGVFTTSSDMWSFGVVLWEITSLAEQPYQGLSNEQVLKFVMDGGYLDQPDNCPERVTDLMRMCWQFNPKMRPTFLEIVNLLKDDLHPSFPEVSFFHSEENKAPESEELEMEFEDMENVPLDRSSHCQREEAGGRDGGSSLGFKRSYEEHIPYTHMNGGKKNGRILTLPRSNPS
structure (smiles),measurement,setting,value
"CN1C/C=C/CCOc2cccc(c2)-c2ccnc(n2)Nc2cccc(c2)C1 [TG02, (16E)-14-methyl-20-oxa-5,7,14,27-tetraazatetracyclo[19.3.1.12,6.18,12]heptacosa-1(25),2(27),3,5,8(26),9,11,16,21,23-decaene]",IC50,[1],0.059 µM
same,inhibition at 100 nm,[2],less than 50%
same,MYCN protein and transcript levels,[3],MYCN protein and transcriptional down-regulation
same,EC50,"[4]; Homo sapiens, read-out: EC50 to treatment with TG02, overexpression of ERK5 and constitutively active ERK in DIPG-IV cells",> 1 µM
same,cleaved Caspase 3/7 levels,"[4]; TG02 100 nM, ERK5-HA or ERK5-HA T733E vs empty vector",reduced cleaved Caspase 3/7 levels
same,inhibition at 100 nm,[5],less than 50%
same,inhibition at 100 nm,[6],less than 50%
same,toxicity to normal cells,[7],not toxic
same,inhibition at 100 nm,[8],less than 50%
same,IC50,[9],0.014 µM
same,inhibition at 100 nm,[10],less than 50%
same,"tumor cell viability, TG02 alone",[11]; vehicle control about 100%,50%
same,"tumor cell viability, TG02 and radiation",[11]; radiation 3 fractions of 1.8 Gy,about 25%
same,IC50,[12],0.027 µM
same,inhibition at 100 nm,[13],less than 50%
same,IC50,[14],0.011 µM
same,peak concentration in plasma,"[15]; adults, single dose of 200 mg","4,000 ng/mL"
same,Cmax and AUC0-t dose dependence,[15]; doses between 10 and 200 mg,dose-proportional increase
same,t1/2,[15]; in vivo,approximately 18 hrs
same,resistance to TG02,[16],promoted resistance to TG02
same,inhibition at 100 nm,[17],less than 50%
same,inhibition at 100 nm,[18],less than 50%
same,inhibition at 100 nm,[19],less than 50%
same,inhibition at 100 nm,[20],less than 50%
same,"most clinically significant toxicities, TG02 combined with RT","[21]; human, in vivo",grade 2 nausea and vomiting and grade 3 neutropenia
same,"significant drug-related toxicities, single agent",[21]; twice a week in older adults,increased liver function tests and grade 3 neutropenia
same,MTD as single-agent,"[21]; twice a week in older adults, probably",~150 mg per dose
same,inhibition at 100 nm,[22],less than 50%
same,inhibition at 100 nm,[23],less than 50%
same,IC50,[24],0.008 µM
